Results from paper PMC8619920, “New Polyesterified Ursane Derivatives from Leaves of Maesa membranacea and Their Cytotoxic Activity” (Molecules, 2021).

Legend:
[1] = Cytotoxicity, LDH assay, PNT-2 cells; format: cell-based, human; conditions: human, 24 h, mean ± SD of three, read-out: Cell viability PNT-2
Description: (§1) Cytotoxic activity was tested on human cancer and normal cells, grouped in three panels, namely: prostate, skin and gastrointestinal. The prostate panel consisted of prostate cancer cell lines Du145 (ATCC HTB-81) and PC3 (ATCC CRL-1435), and prostate epithelial cells PNT-2 (ECACC 95012613). Melanoma cell lines A375 (ATCC CRL-1619) and HTB140 (ATCC Hs 294T) together with skin keratinocytes HaCaT (obtained as a kind gift of prof. Marta Michalik, Department of Cell Biology, Jagiellonian University, Kraków, Poland) were included into the skin panel. The gastrointestinal panel of cells comprised colon cancer cell lines Caco-2 (ATCC HTB-37) and HT29 (ATCC HTB-38). Du145 cells were grown in Modified Eagle’s Medium with low (1.0 g/L) glucose concentration, HT29, PC3 and PNT-2 cells in Dulbecco’s Modified Eagle’s Media: F12 HAM Nutrient Mixture, Caco-2 in Modified Eagle’s Medium with NEAA (no-essential amino acids) while melanoma cells and keratinocytes were maintained in Modified Eagle’s Medium with high (4.5 g/L) glucose concentration. The culture media (all supplied by Sigma-Aldrich Co.; St. Louis, MO, USA) contained antibiotics and 10% fetal bovine serum (FBS). All cultures were maintained at 37 °C, in a humidified, 5% CO2 containing, atmosphere.
(§2) The examined triterpenes were diluted in the culture media from freshly made stock solutions in MeOH (10 mg/mL) to the working concentrations (from 0 to 100 μg/mL).
(§3) Cell viability was determined as it was described previously. Cells suspended in the nutrient medium were transferred into 96-well microtiter plates (density 1.5 × 10^4 per well), and preincubated for 24 h (37 °C, 5% CO2). Then, the culture medium was replaced with the medium containing different concentrations of 1 or 2 (1–100 μg/mL). After 24 h of incubation, viability of the cells was determined using colorimetric lactate dehydrogenase (LDH) assay, in comparison to the controls to which corresponding aliquots of MeOH diluted with culture media were added. Cells grown in the medium without the tested compounds were used as control I (negative) and the positive control (control II) was obtained by incubation of the cells in the medium containing 1% Triton X-100. LDH released from the damaged cells into the cell culture medium was quantified by measuring the absorbance at 490 nm using Synergy II Biotek (BioTek Instruments, Winooski, VT, USA) microplate reader. Cytotoxicities of the examined compounds were calculated as follows: [(absorbance of the tested sample − absorbance of control I)/(absorbance of control II − absorbance of control I)] × 100. Results were means of three independent measurements (± SD). Doxorubicin (Ebewe Pharma GmbH., Unterach, Austria) was used as a reference cytostatic drug. The IC50 values were determined by plotting the percentage viability of the cells versus concentration and the adequate calculations made using AAT Bioquest website program (https://www.aatbio.com/tools/ic50-calculator, accessed on 29 October 2021).

[2] = test system: PNT-2 human normal prostate epithelium cells; assay: Cytotoxicity, LDH assay, PNT-2 cells; format: cell-based; conditions: Homo sapiens, PNT2; 24 h treatment, 5–100 μg/mL
Description: as §1, §2, §3

[3] = Cytotoxicity, LDH assay, DU145 cells; format: cell-based, human; conditions: human, DU145 prostate carcinoma cells, 24 h, mean ± SD of three, read-out: Cell viability DU145
Description: as §1, §2, §3

[4] = test system: DU145 human prostate carcinoma cells; assay: Cytotoxicity, LDH assay, DU145 cells; format: cell-based; conditions: Homo sapiens, DU-145, 24 h, 24 h treatment, 5–100 μg/mL
Description: as §1, §2, §3

[5] = Cytotoxicity, LDH assay, PC3 cells; format: cell-based, human; conditions: human, PC3 prostate adenocarcinoma cells, 24 h, mean ± SD of three, read-out: Cell viability PC3
Description: as §1, §2, §3

[6] = test system: PC3 human prostate adenocarcinoma cells; assay: Cytotoxicity, LDH assay, PC3 cells; format: cell-based
Description: as §1, §2, §3

[7] = Cytotoxicity, LDH assay, HaCaT cells; format: cell-based, human; conditions: human, 24 h, mean ± SD of three, read-out: Cell viability HaCaT
Description: as §1, §2, §3

[8] = test system: HaCaT human immortalized keratinocytes; assay: Cytotoxicity, LDH assay, HaCaT cells; format: cell-based; conditions: Homo sapiens, HaCaT; 24 h treatment, 5–100 μg/mL
Description: as §1, §2, §3

[9] = Cytotoxicity, LDH assay, A375 cells; format: cell-based, human; conditions: human, A375 malignant melanoma cells, 24 h, mean ± SD of three, read-out: Cell viability A375
Description: as §1, §2, §3

[10] = test system: A375 human malignant melanoma cells; assay: Cytotoxicity, LDH assay, A375 cells; format: cell-based; conditions: Homo sapiens, A-375; 24 h treatment, 5–100 μg/mL
Description: as §1, §2, §3

[11] = Cytotoxicity, LDH assay, HTB140 cells; format: cell-based, human; conditions: human, HTB140 melanoma cells, 24 h, mean ± SD of three, read-out: Cell viability HTB140
Description: as §1, §2, §3

[12] = Cytotoxicity, LDH assay, HT29 cells; format: cell-based, human; conditions: human, HT29 colon adenocarcinoma cells, 24 h, mean ± SD of three, read-out: Cell viability HT29
Description: as §1, §2, §3

[13] = test system: HT29 human colon adenocarcinoma cells; assay: Cytotoxicity, LDH assay, HT29 cells; format: cell-based; conditions: Homo sapiens, HT-29; 24 h treatment, 5–100 μg/mL
Description: as §1, §2, §3

## CC(=O)OC1CC2(C)C(C(OC(C)=O)CC3(C)C2C(O)C=C2C4C(C)C(C)(O)CC(OC(C)=O)C4(C)CCC23C)C(C)(C)C1O (stereo not drawn) [Compound 2, 2α,6β,22α-triacetoxy-urs-12-ene-3α,11α,20β-triol]
[1]; PNT-2 normal prostate epithelium cells, 100 μg/mL
  viability at 24 h, 100 μg/mL: 93.56 ± 0.5%
[1]; PNT-2 prostate epithelial cells, 5 μg/mL
  viability at 24 h, 5 μg/mL: 97.49 ± 0.79%
[1]; PNT-2 prostate epithelial cells, 20 μg/mL
  viability at 24 h, 20 μg/mL: 96.3 ± 1.04%
[1]; PNT-2 prostate epithelial cells, 30 μg/mL
  viability at 24 h, 30 μg/mL: 95.64 ± 0.65%
[1]; PNT-2 prostate epithelial cells, 40 μg/mL
  viability at 24 h, 40 μg/mL: 95.37 ± 0.75%
[1]; PNT-2 prostate epithelial cells, 50 μg/mL
  viability at 24 h, 50 μg/mL: 94.56 ± 0.32%
[2]
  IC50: > 100 mg/L
[3]; 5 μg/mL
  viability at 24 h, 5 μg/mL: 97.3 ± 0.27%
[3]; 10 μg/mL
  viability at 24 h, 10 μg/mL: 94.54 ± 0.58%
[3]; 20 μg/mL
  viability at 24 h, 20 μg/mL: 90.07 ± 0.71%
[3]; 30 μg/mL
  viability at 24 h, 30 μg/mL: 83.2 ± 1.24%
[3]; 40 μg/mL
  viability at 24 h, 40 μg/mL: 77.1 ± 1.63%
[3]; 50 μg/mL
  viability at 24 h, 50 μg/mL: 68.6 ± 1.78%
[3]; 100 μg/mL
  viability at 24 h, 100 μg/mL: 57.3 ± 1.9%
[4]
  IC50: > 100 mg/L
[5]; 5 μg/mL
  viability at 24 h, 5 μg/mL: 96.6 ± 1.35%
[5]; 10 μg/mL
  viability at 24 h, 10 μg/mL: 94.1 ± 1.24%
[5]; 20 μg/mL
  viability at 24 h, 20 μg/mL: 87.9 ± 1.54%
[5]; 30 μg/mL
  viability at 24 h, 30 μg/mL: 79 ± 1.1%
[5]; 40 μg/mL
  viability at 24 h, 40 μg/mL: 70.3 ± 1.6%
[5]; 50 μg/mL
  viability at 24 h, 50 μg/mL: 59 ± 1.81%
[5]; 100 μg/mL
  viability at 24 h, 100 μg/mL: 47.1 ± 2.64%
[6]; 100 μg/mL, 24 h, mean ± SD of three
  Cell viability PC3: > 47%
[6]; Homo sapiens, PC-3, 24 h, 24 h treatment, 5–100 μg/mL
  IC50: > 50 mg/L
[7]; HaCaT immortalized keratinocytes, 100 μg/mL
  viability at 24 h, 100 μg/mL: 54.3 ± 1.78%
[7]; HaCaT keratinocytes, 5 μg/mL
  viability at 24 h, 5 μg/mL: 96.84 ± 0.6%
[7]; HaCaT keratinocytes, 10 μg/mL
  viability at 24 h, 10 μg/mL: 94.5 ± 1.55%
[7]; HaCaT keratinocytes, 20 μg/mL
  viability at 24 h, 20 μg/mL: 90.6 ± 0.66%
[7]; HaCaT keratinocytes, 30 μg/mL
  viability at 24 h, 30 μg/mL: 82.8 ± 1.23%
[7]; HaCaT keratinocytes, 40 μg/mL
  viability at 24 h, 40 μg/mL: 75.7 ± 1.76%
[7]; HaCaT keratinocytes, 50 μg/mL
  viability at 24 h, 50 μg/mL: 61.8 ± 1.55%
[8]
  IC50: > 100 mg/L
[9]; 5 μg/mL
  viability at 24 h, 5 μg/mL: 97.28 ± 0.33%
[9]; 10 μg/mL
  viability at 24 h, 10 μg/mL: 95.28 ± 0.9%
[9]; 20 μg/mL
  viability at 24 h, 20 μg/mL: 91.1 ± 1.39%
[9]; 30 μg/mL
  viability at 24 h, 30 μg/mL: 87.3 ± 1.5%
[9]; 40 μg/mL
  viability at 24 h, 40 μg/mL: 82.6 ± 1.36%
[9]; 50 μg/mL
  viability at 24 h, 50 μg/mL: 76.2 ± 1.78%
[9]; 100 μg/mL
  viability at 24 h, 100 μg/mL: 67.6 ± 1.48%
[10]
  IC50: > 100 mg/L
[11]; 5 μg/mL
  viability at 24 h, 5 μg/mL: 97.48 ± 0.79%
[11]; 20 μg/mL
  viability at 24 h, 20 μg/mL: 96.4 ± 0.83%
[11]; 30 μg/mL
  viability at 24 h, 30 μg/mL: 94.3 ± 1.45%
[11]; 40 μg/mL
  viability at 24 h, 40 μg/mL: 93.7 ± 1.11%
[11]; 50 μg/mL
  viability at 24 h, 50 μg/mL: 92 ± 1.64%
[11]; 100 μg/mL
  viability at 24 h, 100 μg/mL: 89.5 ± 1.4%
[12]; 5 μg/mL
  viability at 24 h, 5 μg/mL: 95.76 ± 0.69%
[12]; 10 μg/mL
  viability at 24 h, 10 μg/mL: 94.55 ± 0.84%
[12]; 20 μg/mL
  viability at 24 h, 20 μg/mL: 90.05 ± 0.74%
[12]; 30 μg/mL
  viability at 24 h, 30 μg/mL: 81.7 ± 1.56%
[12]; 40 μg/mL
  viability at 24 h, 40 μg/mL: 74.8 ± 1.13%
[12]; 50 μg/mL
  viability at 24 h, 50 μg/mL: 67.2 ± 1.25%
[12]; 100 μg/mL
  viability at 24 h, 100 μg/mL: 56.9 ± 1.85%
[13]
  IC50: > 100 mg/L
